We go through 4 molecules from patent US20260297131A1, “COMPOSITIONS AND METHODS FOR PEPTIDE-BASED MODULATORS OF HUMAN PAPILLOMAVIRUS ONCOPROTEIN E6” (priority 2023, published 2026).

The structures appear in SMILES notation. Read-outs that look alike come from different tables or passages of the source. Square brackets hold non-standard residues; d marks the D form. Peptide text beside a SMILES is read from it. * marks the point of attachment. Acetyl(9-fluorenyl) = O=C(CC1c2ccccc2-c2ccccc21)*; Anthracene1carbonyl = O=C(c1cccc2cc3ccccc3cc12)*; 2Nal = N[C@@H](Cc1ccc2ccccc2c1)C(=O)O; Gly(cPent) = N[C@H](C(=O)O)C1CCCC1; X1 = O=C(Cn1c2ccccc2c2ccccc21)*; Aad = N[C@@H](CCCC(=O)O)C(=O)O; Cba = N[C@@H](CC1CCC1)C(=O)O; Aib = CC(C)(N)C(=O)O; Dha = C=C(N)C(=O)O Where only a bound is given, the exact number is not on record here.

For experiment [1], the target named is SARS-CoV-2 3C-Like Protease. The settings on record: role: inhibitor; comparison drug; cited from earlier work.
The target of experiment [2] is T1, MBP-16E6 (Human papillomavirus 16, UniProt P03126, C104S/C118S/C147S/C87S).
The target of experiment [3] is T1, MBP-16E6. The settings on record: for crosslinking to MBP-16E6: LC-MS.
The target of a further experiment is MBP-16E6 C58S (Human papillomavirus 16, UniProt P03126, C104S/C118S/C147S/C58S/C87S). The settings on record: 12 h, PBS, 37° C.
Experiment [4] concerns the target T1, MBP-16E6. This is another data set of the same source.
A further experiment concerns the target MBP-16E6 L57A (Human papillomavirus 16, UniProt P03126, C104S/C118S/C147S/C87S/L57A). The settings on record: 10 μM reactide 18.
Experiment [5] has as its target T1, MBP-16E6. Particulars: 1 μM MBP-16E6, Dha peptide mixture 12 μM, 2 h, 37° C.
The target in experiment [6] is T1, MBP-16E6. Description: biochemical.
Another experiment concerns the target T2, THRA (Homo sapiens, UniProt P10827).
T2 sequence (P10827 148-410 limits assumed): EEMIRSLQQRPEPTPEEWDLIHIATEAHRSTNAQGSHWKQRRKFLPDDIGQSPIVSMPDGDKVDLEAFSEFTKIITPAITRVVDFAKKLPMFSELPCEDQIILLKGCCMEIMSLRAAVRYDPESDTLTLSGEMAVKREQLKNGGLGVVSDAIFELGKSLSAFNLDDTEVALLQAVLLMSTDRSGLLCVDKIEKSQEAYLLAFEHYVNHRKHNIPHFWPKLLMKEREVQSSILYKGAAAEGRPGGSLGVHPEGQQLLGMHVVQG
Type of experiment: binding.

The target in experiment [7] is bovine serum albumin (BSA) (Bos taurus, UniProt P02769). Description: Crosslinking in a protein mixture, BSA. Type of experiment: binding. Particulars: 10 μM peptide, 37° C., 12 h.
bovine serum albumin (BSA), sequence (P02769 25-607): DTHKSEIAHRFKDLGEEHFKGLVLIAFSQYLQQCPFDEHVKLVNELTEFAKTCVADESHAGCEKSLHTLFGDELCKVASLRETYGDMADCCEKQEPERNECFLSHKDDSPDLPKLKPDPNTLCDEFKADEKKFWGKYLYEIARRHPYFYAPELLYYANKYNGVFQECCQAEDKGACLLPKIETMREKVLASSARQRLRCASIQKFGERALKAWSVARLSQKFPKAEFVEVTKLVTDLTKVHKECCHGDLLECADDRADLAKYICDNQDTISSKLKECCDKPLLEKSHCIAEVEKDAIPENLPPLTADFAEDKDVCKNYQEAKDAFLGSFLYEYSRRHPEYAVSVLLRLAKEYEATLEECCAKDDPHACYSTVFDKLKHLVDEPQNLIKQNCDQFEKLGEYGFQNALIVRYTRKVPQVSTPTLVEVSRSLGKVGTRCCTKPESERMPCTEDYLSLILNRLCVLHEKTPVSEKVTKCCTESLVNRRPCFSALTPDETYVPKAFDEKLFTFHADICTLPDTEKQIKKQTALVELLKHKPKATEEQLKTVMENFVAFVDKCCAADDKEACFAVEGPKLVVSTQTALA
Another experiment addresses Sumo-MDM2 (Homo sapiens, UniProt Q00987). Description: Crosslinking in a protein mixture, Sumo-MDM2. Type of experiment: binding. The settings on record: 10 μM peptide, 37° C., 12 h.
Another experiment concerns the target 16E6/E6AP (Human papillomavirus 16, UniProt P03126, C104S/C118S/C147S/C87S). Particulars: 1 μM MBP-16E6.

Sumo-MDM2, sequence (Q00987 25-109): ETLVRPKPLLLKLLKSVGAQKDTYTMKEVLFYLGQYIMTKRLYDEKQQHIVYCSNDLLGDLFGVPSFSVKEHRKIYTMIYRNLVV

For the molecule `CC(C)(C)[C@H](NC(=O)C(F)(F)F)C(=O)N1C[C@H]2[C@@H]([C@H]1C(=O)N[C@H](C#N)C[C@@H]1CCNC1=O)C2(C)C` [nirmatrelvir], in [1], the kinact/Ki is 55000 M⁻¹ s⁻¹.
Consider `C=C(NC(=O)[C@H](CC(C)C)NC(=O)[C@H](CC1CCC1)NC(=O)[C@H](CCC(=O)O)NC(=O)C(C)(C)NC(=O)[C@H](CC(C)C)NC(=O)[C@@H](NC(=O)[C@H](Cc1ccc2ccccc2c1)NC(=O)[C@@H](N)CCCC(=O)O)C1CCCC1)C(=O)N[C@@H](CCC(=O)O)C(=O)N[C@@H](CCC(=O)O)C(=O)N[C@@H](CCCNC(=N)N)C(N)=O` [peptide 18] (H-[Aad][2Nal][Gly(cPent)]L[Aib]E[Cba]L[Dha]EER-NH2), for which the “improved affinity compared to parent reactide ELT-DHA9G” value on MBP-16E6 [2] amounted to 50 fold. This molecule displayed a mono-crosslinking on MBP-16E6 [3] (10 μM reactide, 1 μM MBP-16E6, PBS, 37° C., 2 h) greater than 95%. Besides, the “crosslinking to MBP-16E6” value on MBP-16E6 [3] is given as “Quantitative mono-crosslinked”. At MBP-16E6 C58S (10 μM reactide 18), the “crosslinking to C58S” value is reported as “No crosslinking”. The “improvement over E3 (ELT-DHA9G)” value on MBP-16E6 [4] (kinetic study, kinact/Ki) is given as 50 fold. Further, the kinact/Ki on MBP-16E6 [4] (role: inhibitor) amounted to 22700 M⁻¹ s⁻¹. In addition, the inactivation rate constant (kinact) on MBP-16E6 [4] (role: inhibitor, first-order rate constant, steady-state approximation) amounted to 0.018 s⁻¹. Also, the “crosslinking to L57A” value at MBP-16E6 L57A is “no crosslinking”. In addition, the “mono-crosslink yield in competitive mixture” value on MBP-16E6 [5] turned out to be 83%.
With `C=C(NC(=O)[C@H](CC(C)C)NC(=O)[C@H](CC1CCC1)NC(=O)[C@H](CCC(=O)O)NC(=O)C(C)(C)NC(=O)[C@H](CC(C)C)NC(=O)[C@@H](NC(=O)[C@H](Cc1ccc2ccccc2c1)NC(=O)[C@H](CCCC(=O)O)NC(=O)[C@H](C)NC(=O)[C@H](CO)NC(=O)[C@H](CCC(N)=O)NC(=O)[C@@H]1CCCN1C(=O)[C@@H](NC(=O)Cn1c2ccccc2c2ccccc21)[C@@H](C)CC)C1CCCC1)C(=O)N[C@@H](CCC(=O)O)C(=O)N[C@@H](CCC(=O)O)C(=O)N[C@@H](CCCNC(=N)N)C(N)=O` [Peptide 18-Car-IPQSA] (X1-IPQSA[Aad][2Nal][Gly(cPent)]L[Aib]E[Cba]L[Dha]EER-NH2), on MBP-16E6 [2] (apparent Ki), the “improvement of binding relative to peptide 18” value is on record as 7 fold. On MBP-16E6 [3] (1 μM MBP-16E6, 4 μM Dha peptide, 1 h), the “mono-crosslink yield at 1 h” value amounted to 85%. In addition, the “mono-crosslink in 2 h” value at MBP-16E6 [3] (2 h at 37° C., 10 eq. to protein 16E6) is “quantitatively mono-crosslink”. Affinity at MBP-16E6 [6] was put at a Ki of 25 ± 5.5 nM.
For the molecule `C=C(NC(=O)[C@H](CC(C)C)NC(=O)[C@H](CC(C)C)NC(=O)[C@H](CCC(=O)O)NC(=O)[C@H](CCC(N)=O)NC(=O)[C@H](CC(C)C)NC(=O)[C@@H](NC(=O)[C@H](CC(C)C)NC(=O)[C@H](CCC(=O)O)NC(=O)[C@H](C)NC(=O)[C@H](CO)NC(=O)[C@H](CCC(N)=O)NC(=O)[C@@H]1CCCN1C(=O)[C@@H](NC(=O)CC1c2ccccc2-c2ccccc21)[C@@H](C)CC)[C@@H](C)O)C(=O)N[C@@H](CCCNC(=N)N)C(=O)N[C@@H](CCCNC(=N)N)C(=O)N[C@@H](CCCCN)C(=O)N[C@@H](CCCCN)C(=O)N[C@@H](CCCCNC(=O)c1cccc2cc3ccccc3cc12)C(N)=O` [reactide 13] ({Acetyl(9-fluorenyl)}-IPQSAELTLQELL[Dha]RRKKK(Anthracene1carbonyl)-NH2), the “crosslink to THRA” value at THRA is “no crosslink”. For the same molecule, the “modification of BSA” value in experiment [7] is listed as “no observable modifications”. Also, the “modification of MDM2” value at Sumo-MDM2 was “no observable modifications”. At MBP-16E6 [3], the “crosslinking to MBP-16E6” value was “Quantitative mono-crosslinked”. Further, on MBP-16E6 [3] (protein mixture with BSA and Sumo-MDM2 (1 μM each), 10 μM peptide, 37° C., 12 h), the “mono-crosslinked conversion of 16E6 in protein mixture” value is given as greater than 95%. The “crosslinking to C58S” value is on record as “No crosslinking” on MBP-16E6 C58S (3 μM peptide) and “no appreciable amount of reaction product” at MBP-16E6 C58S (3 μM peptide, listed as peptide 13). Further, on 16E6/E6AP, the “BLI response signal to immobilized E6AP protein” value is “significantly decreased BLI response signal”.

The term kinact denotes the rate constant of inactivation at saturating inhibitor. The term Ki denotes the equilibrium dissociation constant of an inhibitor or competing ligand from its target. Lower therefore signals a stronger hold on the target.
